By IC50 is commonly meant the concentration that inhibits the measured activity by half.

SMILES strings stand for the structures.

From patent US8063088B2 (Hoffmann-La Roche Inc., priority 2008, dated 2011) come the findings set out here.

The target in one assay is T1, human LXR alpha (Homo sapiens, UniProt Q13133).
T1 construct: human LXR alpha (aa 164 to 447); unspecified tag ('tagged versions'); made in house; host or cells: E. coli BL21 (pLysS)
T1 sequence (Q13133 164-447): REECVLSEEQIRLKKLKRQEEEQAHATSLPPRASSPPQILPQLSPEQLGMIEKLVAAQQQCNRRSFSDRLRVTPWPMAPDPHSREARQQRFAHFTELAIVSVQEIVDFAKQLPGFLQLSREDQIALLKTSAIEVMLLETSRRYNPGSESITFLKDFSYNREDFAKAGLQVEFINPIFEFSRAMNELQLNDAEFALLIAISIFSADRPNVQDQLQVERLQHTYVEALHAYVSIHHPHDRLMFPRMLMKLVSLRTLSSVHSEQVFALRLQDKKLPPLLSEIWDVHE
The experiment in a line: Radioligand binding assay (SPA), LXR alpha LBD. Conditions: radioligand displacement, LXRα-LBD on SPA beads; read-out: LXRalpha Binding IC50. As to the method: (§1) The following tests were carried out in order to determine the activity of the compounds of the present invention. Background information on the performed assays can be found in: Nichols J S et al. “Development of a scintillation proximity assay for peroxisome proliferator-activated receptor gamma ligand binding domain”, Anal Biochem. 1998, 257: 112-119.
(§2) Mammalian expression vectors were constructed to express full-length human LXR alpha and LXR beta. Bacterial expression vectors were constructed to produce tagged versions of the ligand binding domains (LBD) of human LXR alpha (aa 164 to 447) and human LXR beta (aa 155 to 460). To accomplish this, the portions of the sequences encoding the LBDs were amplified from the full-length clones by PCR and then subcloned into the plasmid vectors. Final clones were verified by DNA sequence analysis (Willy et al., Genes Dev. 1995, 9:1033-45; Song et al., Proc Natl Acad Sci USA. 1994, 91:10809-13).
(§3) Induction, expression, and purification of LBD proteins were performed in E. coli strain BL21 (pLysS) cells by standard methods (Ref: Current Protocols in Molecular Biology, Wiley Press, edited by Ausubel et al).
(§4) Radioligand Binding Assay
(§5) LXR alpha and LXR beta receptor binding were assayed in buffer consisting of 50 mM HEPES, pH 7.4, 10 mM NaCl, 5 mM MgCl2. For each 96-well reaction, 500 ng of LXRα-LBD or 700 ng of LXR beta-LBD proteins were bound to 80 μg or 40 μg SPA beads respectively, in a final volume of 50 μl by shaking. The resulting slurry was incubated for 1 h at RT and centrifuged for 2 min at 1300×g. The supernatant containing unbound protein was removed, and the semi-dry pellet containing the receptor-coated beads was re-suspended in 50 μl of buffer. Radioligand (eg. 100,000 dpm of (N-(2,2,2-trifluoroethyl)-N-[4-(2,2,2-trifluoro-1-hydroxy-1-trifluoromethylethyl)-phenyl]-benzenesulfonamide)) was added, and the reaction incubated at RT for 1 h in the presence of test compounds, and then scintillation proximity counting was performed. All binding assays were performed in 96-well plates and the amount of bound ligand was measured on a Packard TopCount using OptiPlates (Packard). Dose response curves were measured within a range of concentration from 10^−10 M to 10^−4 M.
(In a radioligand displacement assay an active substance lowers the binding of a labelled ligand.)

Another assay deals with T2, human LXR beta (Homo sapiens, UniProt P55055).
T2 construct: human LXR beta (aa 155 to 460); unspecified tag ('tagged versions'); made in house; host or cells: E. coli BL21 (pLysS)
T2 sequence (P55055 155-460): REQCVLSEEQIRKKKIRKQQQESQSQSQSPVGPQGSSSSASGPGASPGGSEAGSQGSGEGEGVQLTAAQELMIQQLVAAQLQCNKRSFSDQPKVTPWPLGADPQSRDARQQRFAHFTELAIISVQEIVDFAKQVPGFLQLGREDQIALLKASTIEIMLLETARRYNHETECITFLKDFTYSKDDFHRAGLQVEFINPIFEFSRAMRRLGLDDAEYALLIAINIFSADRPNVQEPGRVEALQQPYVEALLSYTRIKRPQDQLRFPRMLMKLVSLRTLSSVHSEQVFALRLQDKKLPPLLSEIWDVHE
The experiment in a line: Radioligand binding assay (SPA), LXR beta LBD. The following applies: radioligand displacement, LXR beta-LBD on SPA beads; read-out: LXRbeta Binding IC50. As to the method: as §1, §2, §3, §4, §5

Consider `CCOc1ccc(F)c(-c2cccc(C3CN(S(=O)(=O)c4ccccc4)C(=O)N3C(C)C)c2)c1` (centres unmarked) [Example 30, 1-Benzenesulfonyl-4-(5′-ethoxy-2′-fluoro-biphenyl-3-yl)-3-isopropyl-imidazolidin-2-one], for which the IC50 on human LXR alpha came to 95 nM; on human LXR beta, 10.4 nM.
Turning to `CC(C)(C)OC(=O)N1CC[C@@H](c2ccccc2)[C@H](c2cccc(-c3cncc(S(C)(=O)=O)c3)c2)C1` (relative stereo) [Example 43, trans-3-[3-(5-Methanesulfonyl-pyridin-3-yl)-phenyl]-4-phenyl-piperidine-1-carboxylic acid tert-butyl ester], the IC50 was 3980 nM on human LXR alpha and 755 nM on human LXR beta.
The corresponding values for `Cc1ccc(Cl)cc1-c1cccc(C2CN(S(=O)(=O)c3ccccc3)C(=O)N2C(C)C)c1` (centres unmarked) [Example 26, 1-Benzenesulfonyl-4-(5′-chloro-2′-methyl-biphenyl-3-yl)-3-isopropyl-imidazolidin-2-one] are 1990 nM and 315 nM.
On the same counts, the results for `CC(C)N1C(=O)N(S(=O)(=O)c2ccccc2)CC1c1cccc(-c2cccc(S(=O)(=O)NC(C)(C)C)c2)c1` (centres unmarked) [Example 29, 3′-(1-Benzenesulfonyl-3-isopropyl-2-oxo-imidazolidin-4-yl)-biphenyl-3-sulfonic acid tert-butylamide] are 2250 nM and 410 nM.
Turning to `CS(=O)(=O)c1cccc(-c2cccc([C@@H]3CN(S(=O)(=O)c4ccccc4)CC[C@@H]3c3ccccc3)c2)c1` (relative stereo) [Example 39, cis-1-Benzenesulfonyl-3-(3′-methanesulfonyl-biphenyl-3-yl)-4-phenyl-piperidine], the values for the IC50 on human LXR alpha and at human LXR beta were 3030 nM and 2750 nM, respectively.
For the compound `CC(C)N1C(=O)N(S(=O)(=O)c2ccccc2)CC1c1cccc(-c2cccc(S(N)(=O)=O)c2)c1` (centres unmarked) [Example 24, 3′-(1-Benzenesulfonyl-3-isopropyl-2-oxo-imidazolidin-4-yl)-biphenyl-3-sulfonic acid amide], the IC50 at human LXR alpha stood at 48 nM; on human LXR beta, 1 nM.
In the case of `CS(=O)(=O)Nc1cccc(-c2ccc(C3CN(S(=O)(=O)c4ccccc4)C(=O)N3c3ccccc3)cc2)c1` (centres unmarked) [Example 9, N-[4′-(1-Benzenesulfonyl-2-oxo-3-phenyl-imidazolidin-4-yl)-biphenyl-3-yl]-methanesulfonamide], the IC50 was 425 nM on human LXR alpha and 360 nM on human LXR beta.
On the same counts, the results for `O=C(O)CCc1ccc(-c2cccc(C3CN(S(=O)(=O)c4ccccc4)C(=O)N3c3ccccc3)c2)cc1` (centres unmarked) [Example 10, 3-[3′-(1-Benzenesulfonyl-2-oxo-3-phenyl-imidazolidin-4-yl)-biphenyl-4-yl]-propionic acid] are 3350 nM and 2690 nM.
On the same counts, the results for `COc1ccc(F)cc1-c1cccc(C2CN(S(=O)(=O)c3ccccc3)C(=O)N2C(C)C)c1` (centres unmarked) [Example 27, 1-Benzenesulfonyl-4-(5′-fluoro-2′-methoxy-biphenyl-3-yl)-3-isopropyl-imidazolidin-2-one] are 6230 nM and 3800 nM.
As to `O=C(O)c1ccc(-c2cccc(C3CN(S(=O)(=O)c4ccccc4)C(=O)N3c3ccccc3)c2)cc1` (centres unmarked) [Example 5, 3′-(1-Benzenesulfonyl-2-oxo-3-phenyl-imidazolidin-4-yl)-biphenyl-4-carboxylic acid], the values for the half-inhibitory concentration (IC50) at human LXR alpha and on human LXR beta were 4140 nM and 5420 nM, respectively.
The corresponding values for `CC(C)N1C(=O)N(S(=O)(=O)c2ccccc2)CC1c1cccc(-c2cccc(S(C)(=O)=O)c2)c1` (centres unmarked) [Example 12, 1-Benzenesulfonyl-3-isopropyl-4-(3′-methanesulfonyl-biphenyl-3-yl)-imidazolidin-2-one] are 147 nM and 24.3 nM.
`CC(C)(C)OC(=O)N1CC[C@H](c2ccccc2)[C@H](c2cccc(-c3cccc(S(C)(=O)=O)c3)c2)C1` (relative stereo) [Example 42, cis-3-(3′-Methanesulfonyl-biphenyl-3-yl)-4-phenyl-piperidine-1-carboxylic acid tert-butyl ester]: the IC50 came to 2830 nM at human LXR alpha and 610 nM at human LXR beta.
On the same counts, the results for `CC(C)N1C(=O)N(S(=O)(=O)C(C)C)CC1c1cccc(-c2cccc(S(C)(=O)=O)c2)c1` (centres unmarked) [Example 13, 3-Isopropyl-4-(3′-methanesulfonyl-biphenyl-3-yl)-1-(propane-2-sulfonyl)-imidazolidin-2-one] are 2490 nM and 36 nM.
The corresponding values for `CC(C)(C)OC(=O)N1C[C@H](c2cccc(-c3cccc(S(C)(=O)=O)c3)c2)[C@H](c2ccccc2)CC1=O` (relative stereo) [Example 45, Cis-5-(3′-Methanesulfonyl-biphenyl-3-yl)-2-oxo-4-phenyl-piperidine-1-carboxylic acid tert-butyl ester] are 240 nM and 21 nM.
Regarding `Cc1cccc(-c2cccc([C@@H]3CN(C(=O)OC(C)(C)C)CC[C@H]3c3ccccc3)c2)c1` (relative stereo) [Example 44, trans-3-(3′-Methyl-biphenyl-3-yl)-4-phenyl-piperidine-1-carboxylic acid tert-butyl ester], the IC50 worked out at 53700 nM on human LXR alpha and 5510 nM on human LXR beta.
Consider `O=C(O)c1cccc(-c2cccc(C3CN(S(=O)(=O)c4ccccc4)C(=O)N3c3ccccc3)c2)c1` (centres unmarked) [Example 6, 3′-(1-Benzenesulfonyl-2-oxo-3-phenyl-imidazolidin-4-yl)-biphenyl-3-carboxylic acid], for which the results for the IC50 at human LXR alpha and on human LXR beta were 5720 nM and 9030 nM, respectively.
On the same counts, the results for `Cc1ccccc1N1CCN(C(=O)OC(C)(C)C)CC1c1cccc(-c2cccc(S(C)(=O)=O)c2)c1` (centres unmarked) [Example 48, 3-(3′-Methanesulfonyl-biphenyl-3-yl)-4-o-tolyl-piperazine-1-carboxylic acid tert-butyl ester] are 5530 nM and 355 nM.
With `CC(C)N1C(=O)N(S(=O)(=O)c2ccccc2)CC1c1cccc(-c2cc(F)ccc2F)c1` (centres unmarked) [Example 32, 1-Benzenesulfonyl-4-(2′,5′-difluoro-biphenyl-3-yl)-3-isopropyl-imidazolidin-2-one], the values for the IC50 on human LXR alpha and on human LXR beta were 950 nM and 99.5 nM, respectively.
With `CC(C)N1C(=O)N(S(=O)(=O)c2ccccc2)CC1c1cccc(-c2cccc([N+](=O)[O-])c2)c1` (centres unmarked) [Example 21, 1-Benzenesulfonyl-3-isopropyl-4-(3′-nitro-biphenyl-3-yl)-imidazolidin-2-one], the results for the IC50 on human LXR alpha and at human LXR beta were 2910 nM and 155 nM, respectively.
As for `Cc1ccccc1N1CCN(C(=O)OC(C)(C)C)CC1c1cccc(-c2cncc(S(C)(=O)=O)c2)c1` (centres unmarked) [Example 49, 3-[3-(5-Methanesulfonyl-pyridin-3-yl)-phenyl]-4-o-tolyl-piperazine-1-carboxylic acid tert-butyl ester], the IC50 at human LXR alpha turned out to be 8880 nM; at human LXR beta it was 3750 nM.
Take `Cc1ccc(C)c(-c2cccc(C3CN(S(=O)(=O)c4ccccc4)C(=O)N3C(C)C)c2)c1` (centres unmarked) [Example 31, 1-Benzenesulfonyl-4-(2′,5′-dimethyl-biphenyl-3-yl)-3-isopropyl-imidazolidin-2-one]: the IC50 came out at 815 nM on human LXR alpha and 165 nM at human LXR beta.
On to `Cc1ccc(C)c(-c2cccc(C3CN(C(=O)OC(C)(C)C)CCC3c3ccccc3)c2)c1` (stereo not drawn) [Example 40, trans-3-(2′,5′-Dimethyl-biphenyl-3-yl)-4-phenyl-piperidine-1-carboxylic add tert-butyl ester], for which the IC50 on human LXR alpha amounted to 44100 nM; at human LXR beta it was 19300 nM.
